Values after ≈ are worked out from the molar mass of the structure shown.
How the values were obtained:
[1] = test system: Escherichia coli; test: Antibacterial activity against Escherichia coli ATCC 9637 after 16 hrs by microtiter broth dilution method; format: functional; settings: W
[2] = test system: Pseudomonas aeruginosa; test: Antibacterial activity against Pseudomonas aeruginosa ATCC BAA-427 after 16 hrs by microtiter broth dilution method; format: functional; settings: ATCC BAA-427, 16 h
[3] = test system: Staphylococcus aureus; test: Antibacterial activity against Staphylococcus aureus ATCC 25923 after 16 hrs by microtiter broth dilution method; format: functional; settings: ATCC 25923, 16 h
[4] = test system: Staphylococcus aureus; test: Antibacterial activity against methicillin-resistant Staphylococcus aureus ATCC 700699 after 16 hrs by microtiter broth dilution method; format: functional; settings: ATCC 700699, 16 h
[5] = test system: Staphylococcus aureus; test: Antibacterial activity against […] Staphylococcus aureus ATCC 29213 after 16 hrs by microtiter broth dilution method; format: functional; settings: ATCC 29213, 16 h
[6] = test system: Staphylococcus aureus; test: Antibacterial activity against methicillin/gentamicin-resistant Staphylococcus aureus ATCC 33592 after 16 hrs by microtiter broth dilution method; format: functional; settings: ATCC 33592, 16 h
[7] = test system: Klebsiella pneumoniae; test: Antibacterial activity against Klebsiella pneumoniae ATCC 27736 after 16 hrs by microtiter broth dilution method; format: functional; settings: ATCC 27736, 16 h
[8] = test system: Candida albicans; test: Antifungal activity against Candida albicans after 16 hrs by microtiter broth dilution method; format: functional
[9] = test system: Cryptococcus neoformans; test: Antifungal activity against Cryptococcus neoformans after 16 hrs by microtiter broth dilution method; format: functional
[10] = test system: Sporothrix schenckii; test: Antifungal activity against Sporothrix schenckii after 16 hrs by microtiter broth dilution method; format: functional
[11] = test system: Trichophyton mentagrophytes; test: Antifungal activity against Trichophyton mentagrophytes after 16 hrs by microtiter broth dilution method; format: functional
[12] = test system: Aspergillus fumigatus; test: Antifungal activity against Aspergillus fumigatus after 16 hrs by microtiter broth dilution method; format: functional
[13] = test system: Candida parapsilosis; test: Antifungal activity against Candida parapsilosis ATCC 22019 after 16 hrs by microtiter broth dilution method; format: functional; settings: Lodderomyces parapsilosis, ATCC 22019, 16 h
[14] = Hemolytic activity in human RBC at 100 ug/ml after 1 hr; settings: erythrocyte

Structure (SMILES) | MIC [1] [µM] | MIC [2] [µM] | MIC [3] [µM] | MIC [4] [µM] | MIC [5] [µM] | MIC [6] [µM] | MIC [7] [µM] | MIC [8] [µM] | MIC [9] [µM] | MIC [10] [µM] | MIC [11] [µM] | MIC [12] [µM] | MIC [13] [µM] | Activity [14]
CCOC(=O)c1csc(/N=C/c2cc(/C=C/C(=O)c3ccco3)cc(C(C)(C)C)c2O)n1 | > 110 | > 110 | 13.8 (≈ 6.24 µg/mL) | 13.8 (≈ 6.24 µg/mL) | 13.8 (≈ 6.24 µg/mL) | 13.8 (≈ 6.24 µg/mL) | > 110 | > 110 | > 110 | > 110 | > 110 | > 110 | > 110 | Non-toxic
CCOC(=O)c1csc(/N=C/c2cc(/C=C/C(=O)c3ccc(OC)cc3)cc(C(C)C)c2O)n1 | > 104 | > 104 | 26.1 (≈ 12.5 µg/mL) | 26.1 (≈ 12.5 µg/mL) | 26.1 (≈ 12.5 µg/mL) | 26.1 (≈ 12.5 µg/mL) | > 104 | > 104 | > 104 | > 104 | > 104 | > 104 | > 104 | Non-toxic
COc1ccc(-c2csc(/N=C/c3cc(/C=C/C(=O)c4ccc(C)cc4)cc(C(C)(C)C)c3O)n2)cc1 | > 97.9 | > 97.9 | 12.2 (≈ 6.23 µg/mL) | 12.2 (≈ 6.23 µg/mL) | 12.2 (≈ 6.23 µg/mL) | 12.2 (≈ 6.23 µg/mL) | > 97.9 | > 97.9 | > 97.9 | > 97.9 | > 97.9 | > 97.9 | > 97.9 | Non-toxic
CCOC(=O)c1csc(/N=C/c2cc(/C=C/C(=O)c3cccs3)cc(C(C)(C)C)c2O)n1 | > 107 | > 107 | 13.3 (≈ 6.23 µg/mL) | 13.3 (≈ 6.23 µg/mL) | 6.7 (≈ 3.14 µg/mL) | 3.3 (≈ 1.55 µg/mL) | > 107 | > 107 | > 107 | > 107 | > 107 | > 107 | > 107 | Non-toxic
CCn1cc(C(=O)O)c(=O)c2cc(F)c(N3CCNCC3)cc21 [NORFLOXACIN] | – | 1 (≈ 0.319 µg/mL) | 0.5 (≈ 0.16 µg/mL) | 33.6 (≈ 10.7 µg/mL) | 1 (≈ 0.319 µg/mL) | 0.5 (≈ 0.16 µg/mL) | 0.1 (≈ 0.0319 µg/mL) | > 33.6 | 33.6 (≈ 10.7 µg/mL) | 33.6 (≈ 10.7 µg/mL) | 33.6 (≈ 10.7 µg/mL) | 33.6 (≈ 10.7 µg/mL) | 33.6 (≈ 10.7 µg/mL) | –
CCOC(=O)c1csc(/N=C/c2cc(/C=C/C(=O)c3ccc(C)cc3)cc(C(C)C)c2O)n1 | > 108 | > 108 | 27 (≈ 12.5 µg/mL) | 13.5 (≈ 6.24 µg/mL) | 13.5 (≈ 6.24 µg/mL) | 13.5 (≈ 6.24 µg/mL) | > 108 | > 108 | > 108 | > 108 | > 108 | > 108 | > 108 | Non-toxic
C[C@@H]1[C@H](O)[C@@H](C)/C=C/C=C/C=C/C=C/C=C/C=C/C=C/[C@H](O[C@@H]2O[C@H](C)[C@@H](O)[C@H](N)[C@@H]2O)C[C@@H]2O[C@](O)(C[C@@H](O)C[C@@H](O)[C@H](O)CC[C@@H](O)C[C@@H](O)CC(=O)O[C@H]1C)C[C@H](O)[C@H]2C(=O)O [AMPHOTERICIN B] | > 54.1 | > 54.1 | > 54.1 | > 54.1 | > 54.1 | > 54.1 | > 54.1 | – | 0.1 (≈ 0.0924 µg/mL) | 0.3 (≈ 0.277 µg/mL) | 0.3 (≈ 0.277 µg/mL) | 0.5 (≈ 0.462 µg/mL) | – | –
CCOC(=O)c1csc(/N=C/c2cc(/C=C/C(=O)c3cccs3)cc(C(C)C)c2O)n1 | > 110 | > 110 | 27.5 (≈ 12.5 µg/mL) | 27.5 (≈ 12.5 µg/mL) | 27.5 (≈ 12.5 µg/mL) | 13.7 (≈ 6.23 µg/mL) | > 110 | > 110 | > 110 | > 110 | > 110 | > 110 | > 110 | Non-toxic
COc1ccc(C(=O)/C=C/c2cc(/C=N/c3nc(-c4ccc(OC)cc4)cs3)c(O)c(C(C)(C)C)c2)cc1 | > 94.9 | > 94.9 | 11.9 (≈ 6.27 µg/mL) | 11.9 (≈ 6.27 µg/mL) | 11.9 (≈ 6.27 µg/mL) | 3 (≈ 1.58 µg/mL) | > 94.9 | > 94.9 | > 94.9 | > 94.9 | > 94.9 | > 94.9 | > 94.9 | Non-toxic
